# System: GST-Bcl-2
# Assay: TR-FRET binding assay, Bcl-2
# Settings: TR-FRET Ki values
# Outline: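 Ki values come from Wang's competitive-binding equation applied to TR-FRET signal (excitation 340/35 nm; emission 520/525 nm F-Bak peptide, 495/510 nm Tb antibody). Protein, probe and antibody incubated with compound 3 h at room temperature; dilution series began at 50 μM as 2× stock in 10% DMSO.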
row,SMILES,Binding selectivity ratio (Bcl-XL Ki/Bcl-2 Ki)
1,"CC1(C)CCC(CN2CCN(c3ccc(C(=O)NS(=O)(=O)c4ccc(NC5(CO)CCOCC5)c([N+](=O)[O-])c4)c(Oc4ccc5[nH]ccc5c4)c3)CC2)=C(c2ccc(Cl)cc2)C1 [EXAMPLE 240, 4-(4-{[2-(4-chlorophenyl)-4,4-dimethylcyclohex-1-en-1-yl]methyl}piperazin-1-yl)-N-[(4-{[4-(hydroxymethyl)tetrahydro-2H-pyran-4-yl]amino}-3-nitrophenyl)sulfonyl]-2-(1H-indol-5-yloxy)benzamide]",>795.4
2,"CC1(C)CCC(CN2CCN(c3ccc(C(=O)NS(=O)(=O)c4ccc(NC5(CO)CCOCC5)c([N+](=O)[O-])c4)c(Oc4cccc5[nH]ccc45)c3)CC2)=C(c2ccc(Cl)cc2)C1 [EXAMPLE 241, 4-(4-{[2-(4-chlorophenyl)-4,4-dimethylcyclohex-1-en-1-yl]methyl}piperazin-1-yl)-N-[(4-{[4-(hydroxymethyl)tetrahydro-2H-pyran-4-yl]amino}-3-nitrophenyl)sulfonyl]-2-(1H-indol-4-yloxy)benzamide]",>108.3
3,"CC1(C)CCC(CN2CCN(c3ccc(C(=O)NS(=O)(=O)c4ccc(NC(CO)C5CCOCC5)c([N+](=O)[O-])c4)c(Oc4ccc5[nH]ccc5c4)c3)CC2)=C(c2ccc(Cl)cc2)C1 (centres unmarked) [EXAMPLE 242, 4-(4-{[2-(4-chlorophenyl)-4,4-dimethylcyclohex-1-en-1-yl]methyl}piperazin-1-yl)-N-({4-[(2-hydroxy-1-tetrahydro-2H-pyran-4-ylethyl)amino]-3-nitrophenyl}sulfonyl)-2-(1H-indol-5-yloxy)benzamide]",>367.6
4,"CC1(C)CCC(CN2CCN(c3ccc(C(=O)NS(=O)(=O)c4ccc(NC5CCN(CCn6cccn6)CC5)c([N+](=O)[O-])c4)c(Oc4ccc5[nH]ccc5c4)c3)CC2)=C(c2ccc(Cl)cc2)C1 [EXAMPLE 243, 4-(4-{[2-(4-chlorophenyl)-4,4-dimethylcyclohex-1-en-1-yl]methyl}piperazin-1-yl)-2-(1H-indol-5-yloxy)-N-{[3-nitro-4-({1-[2-(1H-pyrazol-1-yl)ethyl]piperidin-4-yl}amino)phenyl]sulfonyl}benzamide]",>2357.6
5,"CC1(C)CCC(CN2CCN(c3ccc(C(=O)NS(=O)(=O)c4ccc(NCC5CCOCC5)c([N+](=O)[O-])c4)c(Oc4cccc5[nH]ccc45)c3)CC2)=C(c2ccc(Cl)cc2)C1 [EXAMPLE 244, 4-(4-{[2-(4-chlorophenyl)-4,4-dimethylcyclohex-1-en-1-yl]methyl}piperazin-1-yl)-2-(1H-indol-4-yloxy)-N-({3-nitro-4-[(tetrahydro-2H-pyran-4-ylmethyl)amino]phenyl}sulfonyl)benzamide]",>4136.9
6,"CNc1ccc(S(=O)(=O)NC(=O)c2ccc(N3CCN(CC4=C(c5ccc(Cl)cc5)CC(C)(C)CC4)CC3)cc2Oc2ccc3[nH]ccc3c2)cc1[N+](=O)[O-] [EXAMPLE 245, 4-(4-{[2-(4-chlorophenyl)-4,4-dimethylcyclohex-1-en-1-yl]methyl}piperazin-1-yl)-2-(1H-indol-5-yloxy)-N-{[4-(methylamino)-3-nitrophenyl]sulfonyl}benzamide]",>408.2
7,"CNc1ccc(S(=O)(=O)NC(=O)c2ccc(N3CCN(CC4=C(c5ccc(Cl)cc5)CC(C)(C)CC4)CC3)cc2Oc2cccc3[nH]ccc23)cc1[N+](=O)[O-] [EXAMPLE 246, 4-(4-{[2-(4-chlorophenyl)-4,4-dimethylcyclohex-1-en-1-yl]methyl}piperazin-1-yl)-2-(1H-indol-4-yloxy)-N-{[4-(methylamino)-3-nitrophenyl]sulfonyl}benzamide]",490.9
8,"CC(c1ccccc1-c1ccc(Cl)cc1)N1CCN(c2ccc(C(=O)NS(=O)(=O)c3ccc(NCCCN4CCOCC4)c([N+](=O)[O-])c3)c(Oc3cccc4[nH]ccc34)c2)CC1 (centres unmarked) [EXAMPLE 247, 4-{4-[1-(4′-chloro-1,1′-biphenyl-2-yl)ethyl]piperazin-1-yl}-2-(1H-indol-4-yloxy)-N-({4-[(3-morpholin-4-ylpropyl)amino]-3-nitrophenyl}sulfonyl)benzamide]",145.3
9,"O=C(NS(=O)(=O)c1ccc(NCC2CCOCC2)c([N+](=O)[O-])c1)c1ccc(N2CCN(CC3=C(c4ccc(Cl)cc4)CCC(O)C3)CC2)cc1Oc1ccc2[nH]ccc2c1 (centres unmarked) [EXAMPLE 248, 4-(4-{[2-(4-chlorophenyl)-5-hydroxycyclohex-1-en-1-yl]methyl}piperazin-1-yl)-2-(1H-indol-5-yloxy)-N-({3-nitro-4-[(tetrahydro-2H-pyran-4-ylmethyl)amino]phenyl}sulfonyl)benzamide]",12079.6
10,"O=C(NS(=O)(=O)c1ccc(NCC2CCOCC2)c([N+](=O)[O-])c1)c1ccc(N2CCN(CC3=C(c4ccc(Cl)cc4)CCC(N4CCOCC4)C3)CC2)cc1Oc1ccc2[nH]ccc2c1 (centres unmarked) [EXAMPLE 249, 4-(4-{[2-(4-chlorophenyl)-5-morpholin-4-ylcyclohex-1-en-1-yl]methyl}piperazin-1-yl)-2-(1H-indol-5-yloxy)-N-({3-nitro-4-[(tetrahydro-2H-pyran-4-ylmethyl)amino]phenyl}sulfonyl)benzamide]",>7302.0
11,"CC1(C)CCC(CN2CCN(c3ccc(C(=O)NS(=O)(=O)c4ccc(NCC5(N)CCCCC5)c([N+](=O)[O-])c4)c(Oc4ccc5[nH]ccc5c4)c3)CC2)=C(c2ccc(Cl)cc2)C1 [EXAMPLE 250, N-[(4-{[(1-aminocyclohexyl)methyl]amino}-3-nitrophenyl)sulfonyl]-4-(4-{[2-(4-chlorophenyl)-4,4-dimethylcyclohex-1-en-1-yl]methyl}piperazin-1-yl)-2-(1H-indol-5-yloxy)benzamide]",811
12,"CC1(C)CCC(CN2CCN(c3ccc(C(=O)NS(=O)(=O)c4ccc(NCCN5CCCC5=O)c([N+](=O)[O-])c4)c(Oc4ccc5[nH]ccc5c4)c3)CC2)=C(c2ccc(Cl)cc2)C1 [EXAMPLE 251, 4-(4-{[2-(4-chlorophenyl)-4,4-dimethylcyclohex-1-en-1-yl]methyl}piperazin-1-yl)-2-(1H-indol-5-yloxy)-N-[(3-nitro-4-{[2-(2-oxopyrrolidin-1-yl)ethyl]amino}phenyl)sulfonyl]benzamide]",1438.5
13,"CC(c1ccccc1-c1ccc(Cl)cc1)N1CCN(c2ccc(C(=O)NS(=O)(=O)c3ccc(NCC4CCOCC4)c([N+](=O)[O-])c3)c(Oc3ccc4[nH]ccc4c3)c2)CC1 (centres unmarked) [EXAMPLE 252, 4-{4-[1-(4′-chloro-1,1′-biphenyl-2-yl)ethyl]piperazin-1-yl}-2-(1H-indol-5-yloxy)-N-({3-nitro-4-[(tetrahydro-2H-pyran-4-ylmethyl)amino]phenyl}sulfonyl)benzamide]",>8570.3
14,"CC(C1=C(c2ccc(Cl)cc2)CC(C)(C)CC1)N1CCN(c2ccc(C(=O)NS(=O)(=O)c3ccc(NCC4CCOCC4)c([N+](=O)[O-])c3)c(Oc3ccc4[nH]ccc4c3)c2)CC1 (centres unmarked) [EXAMPLE 253, 4-(4-{1-[2-(4-chlorophenyl)-4,4-dimethylcyclohex-1-en-1-yl]ethyl}piperazin-1-yl)-2-(1H-indol-5-yloxy)-N-({3-nitro-4-[(tetrahydro-2H-pyran-4-ylmethyl)amino]phenyl}sulfonyl)benzamide]",>4663.3

# Source: patent publication US9125913B2, “Bcl-2-selective apoptosis-inducing agents for the treatment of cancer and immune diseases” (AbbVie Inc., priority 2008, dated 2015)
